Assay results from PMC10093212, “Development of Cyclic Peptides Targeting the Epidermal Growth Factor Receptor in Mesenchymal Triple-Negative Breast Cancer Subtype” (Cells, 2023).
Bridge positions count the residues as written; N and C are the ends. Ends that are not written are not given here.

Tests used:
[1] = test system: thyroid cancer cell lines (Cal62 and K1); assay: Flow cytometry binding of FITC-peptides to EGFR-positive thyroid cancer cells; format: cell-based, human; conditions: Cal62 and K1, especially K1; 10uM FITC-peptide, 45 min; compared with 06cys_EGFR
Procedure: (§1) We analyzed the binding of FITC-conjugated phages on MDA-MB231 cells by flow cytometry. A binding assay was also performed with FITC-conjugated peptides to human MDA-MB-231 and BT-549 cells, murine 4T1 cells, and additional EGFR-positive thyroid cancer cell lines K1 and Cal62. To increase the stringency conditions of in vitro binding, adherent cells were incubated with 10 μg/mL of 01cys_EGFR and 06_cys EGFR for 45 min in the dark at 37 °C instead of 4 °C of the standard protocol. Cells were recovered by a cell scraper, then twice washed with PBS and suspended in 300 μL of BD™ FACSFlow™ fluid. Data were acquired on the BD FACSCanto™ II and analyzed with FlowJo software (Becton Dickinson, San Jose, CA, USA).
In order to evaluate the binding efficacy of our peptides in other EGFR-overexpressing cancer cell types, we choose two different thyroid cancer cell lines (Cal62 and K1).
Figure S3. Pe p t i d e binding assay in EGFR-positive thyroid cancer cells using ﬂow cytometry. Flow cytometric analysis showing EGFR-overexpressing thyroid cancer cell lines K1 and Cal62 unstained or stained with 10uM of FITC- conjugate peptides (control, 01_cysEGFR and 06cys_EGFR) for 45 […]

[2] = test system: wild-type MDA-MB-231 cells; assay: Flow cytometry binding of FITC-conjugated phages; format: cell-based, human; conditions: phage displaying the peptide; compared to 04cys_EGFR and 30cys_EGFR phages
From the text: Phages expressing peptide sequences (01cys_EGFR, 04cys_EGFR, 06cys_EGFR, and 30cys_EGFR) and a wild-type M13 phage were conjugated to fluorescein isothiocyanate (FITC) in order to analyze their binding affinity to EGFR on MDA-MB-231 by flow cytometry. The “Pierce FITC Antibody Labeling Kit” (cat #53027—Thermo Fisher Scientific) was used for the conjugation following the manufacturer’s instructions.
as §1
The binding ability of phages 01cys_EGFR, 04cys_EGFR, 06cys_EGFR, and 30cys_EGFR to the MDA-MB-231 cells were analyzed by flow cytometry. To this end, the phages were conjugated with fluorescein isothiocyanate (FITC) and incubated with wild-type MDA-MB-231 or MDA-MB-231 EGFR- KO cells. […]

[3] = test system: MDA-MB-231 xenograft tissue; assay: Confocal immunofluorescence of tumor xenograft tissue sections with FITC-peptides; set-up: species or system human; conditions: MDA-MB-231 xenograft tissue sections, FITC-peptide 10 μg/mL, 45 min, 37 °C; confocal microscopy
Procedure: (§2) OCT-embedded MDA-MB-231 xenograft tissue samples derived from Balb/c nude mice were cut in 8–10 µm sections and mounted onto microscope slides for confocal microscopy analysis. Sections were fixed with 4% paraformaldehyde for 30 min at 4 °C, and then for 45 min, incubated at 4 °C with rabbit polyclonal anti-EGFR (1:100 dilution -Bethyl Laboratories, Inc., Montgomery, TX, USA) followed by Alexa Fluor 568-labeled anti-rabbit secondary antibody (1:500 dilution; Thermo Fisher Scientific). After washing, cells were incubated in the dark with FITC-conjugated peptides (Control, 01_cysEGFR, 06_cysEGFR) (10 μg/mL) for 45 min at 37 °C, anti-Wheat Germ Agglutinin (WGA) Alexa Fluor 647 conjugate (1:200 dilution; Thermo Fisher Scientific) for 45 min, and finally with DAPI at the dilution 1:500 for 10 min. Cells were prepared with mounting medium (ProLong antifade, Thermo Fisher Scientific) and visualized by confocal microscopy (LEICA TCS SP8).
Then, we asked whether the 01_cysEGFR and 06_cysEGFR peptides could be used for in vivo analysis of tumor tissues expressing EGFR. To this end, we generated MDA-MB-231 tumor xenograft in mice and performed confocal microscopy analysis of tumor tissue sections upon immunofluorescence staining with FITC-peptides (green signal) or anti-EGFR (red signal) (Figure 6). […]

[4] = test system: MDA-MB-231 EGFR KO xenograft; assay: as above; set-up: species or system human; conditions: MDA-MB-231 EGFR KO xenograft sections, FITC-peptide 10 μg/mL, 45 min, 37 °C; confocal microscopy
Procedure: as §2
EGFR was detected in the MDA-MB-231 xenograft tissue sections by an anti-EGFR antibody as a red fluorescence signal, while it was undetected in MDA-MB-231 EGFR KO (Figure 6).

[5] = test system: BT549 cells; assay: Cell cycle analysis by propidium iodide flow cytometry; format: cell-based, human; conditions: 24 h; for mitogenic activity through the binding to the EGFR: 25 μM, BT549; for cells in G1 phase / cells in G2 phase / cells in S phase: free peptide 25 μM, after 18 h serum starvation, 0.2% FBS, PI staining, two experiments
Procedure: BT549 cells (200,000 cells/well) were seeded onto a 6-well plate in RPMI-1640 complete medium. After adhesion, cells were starved in serum-free RPMI-1640 for 18 h, and then the medium was changed to RPMI-1640 supplemented with 0.2% FBS in the presence or absence of control, 01cys_EGFR and 06_cys EGFR peptides (25 μM). After 24 h of peptide stimulation, cells were trypsinized, washed, and suspended in PBS. Cells were fixed with 1 mL of ice-cold 70% ethanol and incubated for 30 min at 4 °C. Fixed cells were washed three times and stained with 50 μg/mL of propidium iodide and 40 μg/mL of RNAse A. Cell cycle profile was acquired by FACS Canto II and analyzed by Flow Jo software 8.8.6 (Becton Dickinson).
Next, we tested whether the peptides 01cys_EGFR and 06cys_EGFR could affect the cell cycle through the binding to EGFR. To this end, BT549 cells were serum starved for 18h to induce synchronization and then treated with 01cys_EGFR, 06cys_EGFR, and the irrelevant control peptides (25 μM) or left untreated for 24 h. Proliferating cells were stained with propidium iodide to analyze cell cycle distribution by flow cytometry (Figure 7A). The cells treated with 01cys_EGFR, 06cys_EGFR, and control peptides were distributed ~26% in G1, ~64% in S, and ~10% in the G2 phase, which was a similar behavior to unstimulated cells (Figure 7B).
Figure 7 (A) The proportion of BT549 cells untreated or treated with 25 μM of control, 01cys_EGFR, and 06cys_EGFR peptides in G1, S, and G2 phases were determined by flow cytometry and quantified by Flow Jo software using Watson Pragmatic method. […] Data are collected from two different experiments and presented as means ± SD. Paired t-test indicates no statistical significance between peptide-stimulated and unstimulated cells.

[6] = test system: MDA-MB-231 cells; conditions: cited from earlier work
From the text: (§3) TNBC is the most aggressive form of breast cancer. There are different TNBC subtypes characterized by intratumor heterogeneity based on morphology, gene expression profile, and response to adjuvant chemotherapies. Unfortunately, TNBC is still lacking effective anticancer targets for clinical treatment. This justifies the urgency to explore new biomarkers and therapeutic strategies for improving the survival outcomes of TNBC patients. EGFR is a tyrosine kinase membrane receptor that contains in the extracellular region the docking site for the epidermal growth factor a ...

[7] = cited from earlier work
From the text: as §3

[8] = test system: MDA-MB-468 cells; conditions: cited from earlier work
From the text: as §3

Sequence	efficacy of binding to thyroid cancer cells [1]	binding of FITC-conjugated phage (percentage of fluorescence) [2]	green fluorescence signal (FITC-peptide staining) [3]	green fluorescence signal (FITC-peptide staining) [4]	mitogenic activity through the binding to the EGFR [5]	cells in G1 phase [5]	cells in G2 phase [5]	cells in S phase [5]	uptake [6]	serum stability [7]	uptake [8]
CEKMVATHC (disulfide 1-9 (inferred)) [01cys_EGFR, Phage-display selected cyclic EGFR peptide ligand, one disulphide bond, amidated C-terminus]	higher efficacy of binding	higher efficiency	stronger green fluorescence signal	lack of fluorescence	lacked mitogenic activity	~ 26%	~ 10%	~ 64%	–	–	–
CGGNGPGLC (disulfide 1-9 (inferred)) [irrelevant peptide, Irrelevant peptide synthesized as a negative control, reference compound]	–	–	lack of green fluorescence signal	–	–	~ 26%	~ 10%	~ 64%	–	–	–
CPSDEHHTC (disulfide 1-9 (inferred)) [06cys_EGFR, Phage-display selected cyclic EGFR peptide ligand, one disulphide bond, amidated C-terminus]	–	higher efficiency	–	–	lacked mitogenic activity	~ 26%	~ 10%	~ 64%	–	–	–
YHWYGYTPENVI [peptide 22]	–	–	–	–	–	–	–	–	highest uptake	low serum stability	highest uptake
